The results in this text go back to article PMC8224775, “Five Tetramic Acid Derivatives Isolated from the Iranian Fungus Colpoma quercinum CCTU A372” (Biomolecules, 2021).

Structures are written as SMILES. In brackets after ≈: the same amount, converted by molar mass. Marks after values point to notes of the source that are not given here.

In general, MIC refers to the lowest concentration that inhibits growth of the organism. A word on the IC50: it is the concentration that inhibits the measured activity by half.

In one assay the test system is Bacillus subtilis DSM 10. As to the kind of experiment: Antimicrobial serial dilution assay (MIC). The format is cell-based. The settings on record: DSM10, serial dilution 67 to 0.5 µg/mL, overnight, read-out: MIC. The protocol: (§1) Antimicrobial activity was determined by our established protocol, according to Becker et al.. In general, all of the pure compounds were dissolved in MeOH with a concentration of 1 mg/mL. Assessment of the antimicrobial activity was determined using the serial dilution assay method to calculate the minimum inhibitory concentration (MIC). In this method, the compounds were diluted in a range between 67 and 0.5 µg/mL in 96 well-plate and incubated with the test organism overnight. The next day, growth of the test organisms was visually observed, and MIC was determined in the lowest concentration where a clear zone (no growth of test organism) was observed. In our attempt for novel anti-infective compounds, an established standard protocol using various organisms representing a broad spectrum of pathogens of clinical interest, as well as sensitive indicator strains, was used (bacteria: Bacillus subtilis DSM 10, Staphylococcus aureus DSM 346, Acinetobacter baumanii DSM 30008, Chromobacterium violaceum DSM 30191, Escherichia coli DSM 1116 and Pseudomonas aeruginosa PA14; mycobacteria: Mycobacterium smegmatis ATCC 700084 and fungi: Candida albicans DSM 1665, Schizosaccharomyces pombe DSM 70572, Mucor hiemalis DSM 2656, Wickerhamomyces anomala DSM 6766 and Rhodotorula glutinis DSM 10134). Methanol as a solvent to dissolve the pure compounds was used as the negative control. Oxytetracycline, ciprofloxacin, gentamycin, and kanamycin were used as positive controls against bacteria, whereas nystatin was used against fungi. A detailed experimental procedure can be found in the SI.
(§2) Protocol: Antimicrobial Activity Assay
(§3) The assay was conducted as a minimum inhibitory concentration (MIC) assay in 96-well round- bottom microtiter plates using the parameters summarized in Table S1 and as already described in [S1]. Stocks of the test organisms were generated by growing the organisms overnight in 50 mL shaking flasks filled with 25 mL of the growth medium at 140r p m ( media and temperatures see Table S1). If the organisms were well grown the next day, which was checked by the occurrence of an optical density (OD) […] of the suspension (OD600 nm for bacteria, OD548 nm for fungi and M. smegmatis), aliquots of these were stored in 1.5 mL reaction tubes in a freezer at −80 °C for up to 12 months. Upon use, aliquots were unthawed and the OD of the suspension measured and adjusted by diluting with the respective growth medium. OD600 nm was adjusted to 0.01 and OD548 nm to 0.1. Subsequently, 150 μ L of the adj usted suspensions were added to all wells of a 96-well microtiter plate (one test organism per plate). In row A, additional 130 μ L of suspensions plus 20 μ L of the test compounds (1 mg/mL) and the controls (one compound/column) were added. MeOH was used as negative controls, while different positive controls (references) were used for the test organisms (see Table S1). Then, starting from row A, 150 μ L of t he suspension were transferred to the next row, the contents thoroughly mixed, and 150 μ L transferred to the following row. The remaining 150 μ L after row H were discarded. […]
(§4) of the test compounds, ranging from 66.7 μg/mL in row A to 0.52 μ g/mL in row H. The microtiter plates were then incubated overnight on a microplate shaker at 800 rpm at 30 or 37 °C (see Table S1) and were visually evaluated the next day. The MIC is defined as the lowest concentration where no growth of the test organism (clear zone) was observed. A lower MIC thus corresponds to a higher antimicrobial activity of the test compound.
Table S1: MIC assay experiment parameters test organism strain No growth incubation positive control
Bacillus subtilis DSM10 MHB1 30 oxytetracyclin 1.0mg/ mL […]
(§5) Candidaa lbicans DSM1665 MYC3 30 nystatin 1.0mg/ mL
(§6) Schizosaccharomyces DSM70572 MYC3 30 nystatin 1.0mg/ mL
(§7) Mucor hiemalis DSM2656 MYC3 30 nystatin 1.0mg/ mL
(§8) Wickerhamomyces DSM6766 MYC3 30 nystatin 1.0mg/ mL
(§9) Rhodotorula glutinis DSM10134 MYC3 30 nystatin 1.0mg/ mL […]

A further assay has as its system Escherichia coli. As to the kind of experiment: Antimicrobial serial dilution assay (MIC). It is filed as cell-based. Particulars: serial dilution 67 to 0.5 µg/mL, overnight, read-out: MIC. The protocol: as §1, §2, §3, §4
(§10) Table S1: MIC assay experiment parameters test organism strain No growth incubation positive control […]
Escherichia coli DSM1116 MHB1 37 oxytetracyclin 1.0mg/ mL […]
as §5, §6, §7, §8, §9

Assay [1] has as its system Staphylococcus aureus DSM 346. As to the kind of experiment: Antimicrobial serial dilution assay (MIC). The settings on record: DSM346, serial dilution 67 to 0.5 µg/mL, overnight, read-out: MIC. It is filed as cell-based. The protocol:
as §1, §2, §3
of the test compounds, ranging from 66.7 μg/mL in row A to 0.52 μ g/mL in row H. The microtiter plates were then incubated overnight on a microplate shaker at 800 rpm at 30 or 37 °C (see Table S1) and were visually evaluated the next day. The MIC is defined as the lowest concentration where no growth of the test organism (clear zone) was observed. […]

The next assay has as its system Mucor hiemalis DSM 2656. As to the kind of experiment: Antimicrobial serial dilution assay (MIC). The settings on record: serial dilution 67 to 0.5 µg/mL, overnight. It is filed as cell-based. The protocol: as §1, §2, §3, §4, §10, §5, §6, §7, §8
(§11) Rhodotorula glutinis DSM10134 MYC3 30 nystatin 1.0mg/ mL
(§12) 1 MHB: Müller-Hinton Broth (SN X927.1, CarlRoth GmbH, Karlsruhe, Germany) […]

A further assay deals with Pichia anomala DSM 6766. As to the kind of experiment: Antimicrobial serial dilution assay (MIC). It is filed as cell-based. Particulars: serial dilution 67 to 0.5 µg/mL, overnight. The protocol: as §1, §2, §3, §4, §10, §5, §6, §7, §8, §11, §12
The test system of assay [2] is Rhodotorula glutinis DSM 10134. As to the kind of experiment: Antimicrobial serial dilution assay (MIC). It is filed as cell-based. The settings on record: serial dilution 67 to 0.5 µg/mL, overnight. The protocol: as §1, §2, §3, §4, §10, §5, §6, §7, §8, §11, §12
Another assay deals with mouse fibroblast L-929. In words: 5-day MTT cytotoxicity assay. The format is cell-based. The settings on record: Mus musculus, L929, 120 h. As for the experimental part: (§13) Cytotoxicity of compounds 1‒5 was initially determined against two cancer cell lines (mouse fibroblasts L-929 and human endocervical adenocarcinoma KB-3.1) by using a 5-day MTT assay according to an established procedure.
(§14) In 96-well flat-bottom microtiter plates, cell lines with serial dilution of the test compounds (final range: 37 to 0.6 × 10^−3 µg/mL) were incubated for five days. After five days, the cells were dyed using 3-(4,5-dimethyl-2-thiazolyl)-2,5-diphenyl-2H-tetrazolium bromide (MTT), which is only converted to its purple formazan derivative by living cells. The half-maximum inhibitory concentration (IC50 in µM) was calculated via the colorimetric method in a microplate reader using absorption at 595 nm. In addition, when an inhibition with an IC50 < 50 µM was observed, other cell lines were subjected to the test compounds to evaluate their further cytotoxicity: PC-3 (human prostate adenocarcinoma), SK-OV-3 (human ovary adenocarcinoma), MCF-7 (human breast adenocarcinoma), A-431 (human squamous carcinoma), and A549 (human lung carcinoma). A detailed procedure, including the colorimetric method to determine the cell viability, can be found in the SI.
(§15) Protocol: Cytotoxicity Assay
(§16) The assay was co nducted in 9 6-well flat -botto m microtiter plates using the parameters summarised in T able S2 and as described in [S2]. Cell l ines L-929 and KB-3.1 were incubated at 37 °C under 10 % CO2 in Gibco™ DMEM medium (T her mo Fisher Scientific, Waltham, M A, USA) supplemented with 10 % FBS. A microtiter plate was filled wit h 120 μ L o f this suspensio n (50,000/mL) in each well. Seperatel y, a nother microti ter plate wa s filled wit h 100 μL of gro wth medium in each well. Then, 50 μ L of the test compound solutions (1 mg/mL) were given to wells of the first column in two replicates (one compound per row). Cells without additives and MeOH were used as nega tive controls. Starting from the first column, 50 μ L of the solutions were gradually transferred to the next column, the contents thoroughly mixed, and 50 μL transferred to the following column. This created a serial dilution of the test compounds ranging from 333 μ g/mL to 1.9×10-3 μg/ mL. T he re mai ni ng 50 μ L after column twelve were discarded. From this microtiter plate, 60 μ L of the solutions fro m 111 μ g/mL to 1.9×10-3 μg/mL we r e give n to t he firs t p late co ntai ni ng 1 2 0 μ L of the cell suspensions (i.e. the highest co ncentration 333 μ g/ mL wa s no t used). T his resul ted in fi nal compo und concentratio ns rangi ng fro m 37 μ g/mL to 0.6×10-3 μg/ mL. After 5 days o f incubatio n under the aforementioned incubatio n conditions, the half maximu m inhibitory co ncentrations (IC50) were deter mined using a colorimetric tetrazolium d ye MT T assa y [S3]. For this, 20 μ L of a 5 mg/mL solution of 3-(4,5-dimethyl-2 -thiazolyl) -2,5-diphenyl-2H-tetrazolium br omide (MTT) were added to each well and incubated for two hours at 37 °C. T hen, the microtiter plate was ce ntrifuged (3,000 rpm, 5 min) and the supernatant removed by holding the plate upside-down and gentle shaking. Afterwards, the wells were washed using 100 μ L of phosphate buffered saline (PBS). T he plate was a gain ce ntrifuged a nd the supernata nt re mo ved as described before.
(§17) T hen, 1 0 0 μ L of an isopropanol:HCl solution (1L isopropanol+4 mL HCl 37 % w/v) were added to the wells. After incubating for 10 min at ambient temperature, the absorption of the wells at 595 nm was measured with an Infinite® 200 Pro microplate reader (TECAN, Männedorf, Schweiz). The absorption values of the cells without additives were averaged and set to 100 % cell viability. Then, the means of absorption of the two compound replicates were set in relation to the blank media. T hese percentage values were plotted against the concentratio n range (37 μ g/mL to 0.6×10−3 μg/ mL). T he IC50 value was r ead fro m the plot (in μ g/ mL) a nd the uni ts conversed […]
to μM. […]

Assay [3] deals with human prostate cancer PC-3. In words: 5-day MTT cytotoxicity assay. The settings on record: 120 h. It is filed as cell-based. As for the experimental part: as §13, §14, §15, §16, §17
to μM. […]
Background: Tetrazolium dyes change colour on reduction, which living cells bring about.

Assay [4] has as its system human breast adenocarcinoma MCF-7. In words: 5-day MTT cytotoxicity assay. Particulars: Homo sapiens, MCF7, 120 h. It is filed as cell-based. As for the experimental part:
as §13, §14, §15, §16, §17
to μM. […]

The subject of assay [5] is human lung carcinoma A-549. In words: 5-day MTT cytotoxicity assay. The format is cell-based. Particulars: A549, 120 h. As for the experimental part:
as §13, §14, §15, §16, §17
to μM. […]

For assay [6], the system named is endocervical adenocarcinoma KB-3.1. In words: 5-day MTT cytotoxicity assay. It is filed as cell-based, human. Particulars: Homo sapiens, KB 3-1, 120 h. As for the experimental part:
as §13, §14, §15, §16, §17
to μM. […]

The subject of assay [7] is squamous cell carcinoma A-431. In words: 5-day MTT cytotoxicity assay. It is filed as cell-based, human. The settings on record: Homo sapiens, A-431, 120 h. The protocol: as §13, §14, §15, §16, §17
to μM. […]

Assay [8] concerns ovarian carcinoma SK-OV-3. As to the kind of experiment: 5-day MTT cytotoxicity assay. The format is cell-based, human. The settings on record: Homo sapiens, SK-OV-3, 120 h. The protocol:
as §13, §14, §15, §16, §17
to μM. […]

Assay [9] relates to Acinetobacter baumanii DSM 30008. In words: Antimicrobial serial dilution assay (MIC). The format is cell-based. Particulars: Acinetobacter baumannii, DSM30008, serial dilution 67 to 0.5 µg/mL, overnight, read-out: MIC. As for the experimental part: as §1, §2, §3, §4, §10, §5, §6, §7, §8, §11, §12

Regarding `CN(C)[C@@H]1C(O)=C(C(N)=O)C(=O)[C@@]2(O)C(O)=C3C(=O)c4c(O)cccc4[C@@](C)(O)[C@H]3[C@H](O)[C@@H]12` [oxytetracycline, reference compound], the MIC in the assay with Bacillus subtilis DSM 10 came out at 8.3 µg/mL (≈ 18 µM); in the assay with Escherichia coli, 1.7 µg/mL (≈ 3.69 µM); in [1], 1.7 µg/mL (≈ 3.69 µM).

As to `C[C@@H]1[C@H](O)[C@@H](C)/C=C/C=C/CC/C=C/C=C/C=C/C=C/C(O[C@H]2O[C@H](C)[C@@H](O)[C@H](N)[C@@H]2O)CC2O[C@](O)(CC(O)C(O)CCC(O)CC(O)CC(O)CC(=O)O[C@H]1C)CC(O)C2C(=O)O` (some centres unmarked) [nystatin, reference compound], the MIC is reported as 4.2 ^b µg/mL in the assay on Mucor hiemalis DSM 2656, 4.2 ^b µg/mL against Pichia anomala DSM 6766 and 1.0 ^b µg/mL in [2].

In the case of `C/C(=C\c1csc(C)n1)[C@@H]1C[C@@H]2O[C@]2(C)CCC[C@H](C)[C@H](O)[C@@H](C)C(=O)C(C)(C)[C@@H](O)CC(=O)O1` [epothilone B, reference compound], the IC50 in the assay on mouse fibroblast L-929 is 0.83 nM; in [3], 0.27 nM; in [4] it was 0.071 nM; in assay [5], 0.055 nM; in assay [6], 0.053 nM; in assay [7] it was 0.083 nM. The IC50 in assay [8] is 0.24 nM.

With `O=C(O)c1cn(C2CC2)c2cc(N3CCNCC3)c(F)cc2c1=O` [ciprofloxacin, reference compound], the MIC in assay [9] worked out at 0.26 µg/mL (≈ 0.785 µM).
